Results: patent publication US5591740A, “Use of debromohymenialdisine for treating osteoarthritis” (OsteoArthritis Sciences, Incorporated, priority 1995, dated 1997)

Experiments:
[1] = test system: chondrocytes, interleukin-1 induced proteoglycan degradation; test: Chondrocyte cell culture matrix breakdown assay (IL-1 induced 35S proteoglycan release); type: cell-based, calf; conditions: for IC50: Bos taurus, chondrocyte matrix breakdown assay, 1 ng/ml rhIL-1α, 22-24 hours, read-out: IC50, inhibition of proteoglycan degradation; for dose response curve (FIG. 1): percent inhibition over a range of concentrations
Method: A cell culture assay was used to-measure the ability of the test compounds to slow the degradation of the extracellular matrix by a metalloproteinase. This assay measured the amount ^35 S released from chondrocytes grown in a media with ^35 S labeled sodium sulfate. The cell culture assay was carried out as follows:
Two or three 1 to 3 week old calf joints were obtained from an abattoir. The proximal end of the shank was about 4-5" long to facilitate immobilization in the holder. The joint was kept cool and transported on ice. The exterior of the intact joints was washed well with a suitable anti-microbial soap, rinsed clean with warm water, rinsed in betadine and then finally rinsed with 70% ethanol. Up to this point all steps were done in a manner to ensure that the joint was kept as clean as possible. All subsequent steps were performed in a sterile field (i.e., in a Edgeguard laminar flow tissue culture hood). The joint was immobilized and the synovial fluid was aspirated with a needle and syringe. The joint was then cut open to expose the articular cartilage using a #21 scalpel. Using locking hemostats, forceps and a #15 scalpel, the cartilage was excised in full thickness pieces. Care was taken not to cut too deep into the subchondral bone to prevent bleeding. The cartilage pieces were placed into a 50 mL centrifuge tube containing 25 mL of Delbecco's phosphate buffered saline (D-PBS) supplemented with 1% antibiotic solution (penicillin, streptomycin and fungizone; GIBCO/BRL). The slices from each joint were then placed into separate 50 mL centrifuge tubes. The D-PBS was decanted and replaced with 25 mL of fresh D-PBS supplemented with antibiotics and subsequently agitated gently.
The cartilage pieces were transferred to a fresh 50 mL centrifuge tube and rinsed once more with 25 mL of D-PBS minus antibiotics. An enzymatic digestion solution containing 1 mg/mL of hyaluronidase in serum-free 1:1 DMEM/Ham's F-12 (DMEM/F12) was prepared. This solution was filter sterilized with […] Milex--GV filter and kept on ice until ready to use. The cartilage pieces were digested with approximately 5 mL of hyaluronidase solution per joint for 2×15 minutes at 37° C. in the 50 mL centrifuge tube with gentle agitation at the 15 minute mark. This procedure removed residual hyaluronic acid from the surface of the chips. The enzymatic digestion solution was then aspirated and the cartilage pieces were rinsed with 25 mL of D-PBS.
A second enzymatic digestion solution containing 2.5 mg trypsin and 2 mg collagenase P per mL serum-free DMEM/F12 was prepared. This solution was also filter sterilized with a […] Millex--GV filter and kept on ice until ready to use. The cartilage pieces were digested with approximately 5 mL of trypsin: collagenase solution per joint for 2×15 minutes at 37° C. in the 50 mL centrifuge tube with gentle agitation at the 15 minute mark. This procedure removed the synovial fibroblasts and any adherent connective tissue from the surface of the chips. The enzymatic digestion solution was then carefully removed and saved and the cartilage pieces were rinsed with 25 mL of D-PBS.
A third enzymatic solution containing 2 mgs of collagenase P (BMB) per mL serum-free DMEM/F12 was prepared. This solution was filter sterilized with a […] Millex--GV filter and kept on ice until ready to use. The pre-digested cartilage pieces were finally digested with approximately 20 mL of enzymatic digestion solution per joint for 5-6 hours at 37° C. in a Bellco stirring digestion flask, at which point the cartilage was fully digested away.
The enzymes in the synovial fibroblast and chondrocyte digest were neutralized by addition of an equal volume of DMEM/F12 supplemented with 5% fetal bovine serum. Fibroblasts were plated in DMEM at a cellular density of 6.6×10^3 cells per cm^2. […]

[2] = test system: bovine cartilage explants, interleukin-1 stimulated proteoglycan degradation; test: Bovine articular cartilage explant assay (IL-1 induced 35S-GAG release); type: cell-based, bovine (1 to 3 week old calf); conditions: for IC50: Bos taurus, bovine cartilage explants, rhIL-1α 5 ng/mL, 3-4 days, read-out: IC50, inhibition of interleukin-1 stimulated proteoglycan degradation; for dose response curve (FIG. 2): percent inhibition over a range of concentrations
From the text: A tissue culture assay was used to measure the ability of the compounds of the present invention to slow the degradation of the extracellular matrix by metalloproteinases. This assay measured the amount of ^35 S-glycosaminoglycan (^35 S-GAG) released from labeled bovine cartilage explants.
Knee joints from a 1 to 3 week old calf were obtained immediately after sacrifice from the Abattoir and then transported on ice. The intact joints were washed well with tap water and soaked in 50% (v/v) Povidine iodine solution, obtained from Burre National, Inc., Baltimore, Md. All subsequent steps were performed in a laminar flow tissue culture hood using standard sterile technique. The joint was immobilized in a shank holder and the joint capsule was cut open to expose the articular cartilage. Cartilage explant plugs, approximately 15 mg wet weight, were removed from the flat articulating surfaces in the lower-most region of the knee joint using a sterile steel cork-borer and collected in a 250 mL roller bottle containing about 100 mL fresh Delbecco's minimum essential medium (DMEM), obtained from Gibco BRC, Life Technologies, Gaithersburg, Md., containing 4.5 g/l (D)-glucose and (L)-glutamine, without sodium pyruvate. The fresh media also contained enough Hepes buffer and sodium bicarbonate such that the pH was about 7.4. The media was then further supplemented just before use with 100 units Penicillin, 100 μg Streptomycin, and 50 μg (L)-ascorbic acid per mL of medium.
Once collected, the explant plugs were washed four times with 50 mL fresh DMEM. The plugs were then placed in the incubator for a minimum of 1 hour to equilibrate, before proceeding to make disks from the articulating surface of each plug. A 1 mm thick disk was sliced from individual plugs from the end that was the articulating surface of the joint. The plug was held steady in the sterile template (4 mm diameter ×1.5 mm deep) using sterile forceps. A scalpel blade was used to carefully slice off the disk. Only the superficial articulating surface responded well in culture.
Individual disks obtained were transferred to a tissue culture flask containing about 100 mL fresh media. The flask containing the disks was placed in an incubator at 37° C. (with 5% CO2, 95% air) and allowed to equilibrate overnight and at least one additional day before labeling. When ready to label, the old media was replaced with 50 mL fresh media containing about 500 μCi ^35 S-Sodium Sulfate. The plugs were labeled in bulk for about 48 hours. […]
The TC plates were then placed in the incubator and cultured for 3-4 days (initial incubation with rhIL-1α alpha takes at least 3 days to stimulate endogenous metalloproteinases). A 50 μL aliquot of media from each TC plate was saved and counted. […]

[3] = test system: osteoarthritis in Hartley guinea pigs following surgical induction of joint instability; test: Slowing the development of osteoarthritis in the Hartley guinea pig model (surgically induced joint instability, Mankin scoring); type: in vivo, male Hartley guinea pigs; parameters: Structure (Mankin criteria), mean / Cells (Mankin criteria), mean / Safranin O (Mankin criteria), mean / mean Mankin score: scale not given here; conditions: for Cells (Mankin criteria), mean: untreated 1.6; for Safranin O (Mankin criteria), mean: untreated 2.3; for Structure (Mankin criteria), mean: untreated 4.6; for mean Mankin score: untreated 10.3, placebo 10.0
Method: Thirty five male Hartley guinea pigs 40 days old, were purchased from Charles River Laboratories. Each group consisted of 5 animals that were euthanized at 1, 2, 3, 4, 5, 6 and 8 months post-surgery. Ketamine 40 mg/kg, Xylazine 5 mg/kg and Fentanyl 0.1 mg/kg sc were used for anesthesia. Naloxone hydrochloride was given at 0.1 mg/kg following surgery. For radiography, animals were sedated with Xylazine 10 mg/kg sc and superficially anesthetized with Ketamine 20 mg/kg sc.
Surgery was performed under direct visualization using a dissecting microscope at 7.5 fold magnification. A medial longitudinal parapatellar incision was followed by division of the capsule and synovial layers. A partial medical menisectomy was followed by transection of the anterior cruciate ligament. Confirmation of the ligament transection was obtained by a positive anterior drawer sign. The capsule was continuously sutured with 5-0 VICRYL™ and the skin was closed with staples.
After the animals were sacrificed, joints were prepared for histological examination by standard techniques. Joints were fixed for 14 days in 10% formalin. Knees were then decalcified in 20% Formic acid in PBS, pH 7.2 for 24 hours. Sections cut at 5μ were stained with Safranin O, Fast Green and Hematoxylin. Radiographic evaluation was performed with antero-posterior and lateral views. A dental X-Ray unit and DF-50 film were used. Histopathological scoring was performed by two blinded, independent observers using the Mankin criteria (Mankin, H. J., "Biochemical and Metabolic Aspects of Osteoarthritis," Orthopedic Clinics of North America, 2:19-30 (1971). This evaluation system grades the structural defects, cellular changes, loss of proteoglycan as reflected by Safranin 0, and disruption of an antatomic landmark reflecting the transition to calcified cartilage. The Mankin scoring criteria are listed below:
Surgery was performed on twenty-four male Hartley guinea pigs during which the joint instability was induced according to the procedure described in Example 4.
The animals were divided into four groups of six. Beginning two weeks following surgery, each animal in the first two groups was given weekly intraarticular injections into the surgically treated joints of 0.3 mg (6 mg/ml) or 1.5 mg of Z-debromohymenialdisine (30 mg/ml) in a vehicle containing carboxymethylcellulose (2 mg/ml saline) and polysorbate 80 (0.5 mg/ml saline). Total volume of the injection was 50 μl. Group III animals were given weekly intraarticular injections of a placebo, while Group IV animals were left untreated. The treatments were continued for seven weeks.
At the termination of the system, the animals were euthanized and […] evaluation of the knees was performed as described in Example 5 using the Mankin criteria. The results of the histological evaluation at seven weeks post surgery are depicted in FIG. 4.

[4] = 0.3 or 1.5 mg/week intraarticular

Structure (SMILES)	IC50 [1] [µM]	dose response curve (FIG. 1) [1]	IC50 [2] [µM]	dose response curve (FIG. 2) [2]	Cells (Mankin criteria), mean ([3]; 0.3 mg weekly intraarticular)	Safranin O (Mankin criteria), mean ([3]; 0.3 mg weekly intraarticular)	Structure (Mankin criteria), mean ([3]; 0.3 mg weekly intraarticular)	mean Mankin score ([3]; 0.3 mg/week intraarticular)	Cells (Mankin criteria), mean ([3]; 1.5 mg weekly intraarticular)	Safranin O (Mankin criteria), mean ([3]; 1.5 mg weekly intraarticular)	Structure (Mankin criteria), mean ([3]; 1.5 mg weekly intraarticular)	mean Mankin score ([3]; 1.5 mg/week intraarticular)	disease progression, result in words [3, 4]	structural and biochemical changes in developing osteoarthritis (loss of Safranin O staining), result in words [3, 4]	joint degeneration and cartilage degradation, result in words ([3]; animal model, weekly intraarticular)
O=C1NC(=O)/C(=C2/CCNC(=O)c3[nH]c(Br)cc32)N1 [Axinohydantoin (3), axinohydantoin]	> 50														
NC1=N/C(=C2\CCNC(=O)c3[nH]ccc32)C(=O)N1 [E-debromohymenialdisine]	6	broad, shallow dose response curve	50	broad, shallow dose response curve											
NC1=N/C(=C2/CCNC(=O)c3[nH]ccc32)C(=O)N1 [Z-debromohymenialdisine]	0.8	broad, shallow dose response curve	2	broad, shallow dose response curve	1.2	1.5	3.5	6.7	1.5	1.1	1.6	5.5	significant reduction in disease progression	able to diminish the structural and biochemical changes	effective in slowing joint degeneration and cartilage degradation
NC1=NC(=O)/C(=C2\CCNC(=O)c3[nH]c(Br)cc32)N1 [Hymenialdisine (2), hymenialdisine]	> 50														
